Laboratory results reported in US20090197955A1, “METHODS OF IMPROVING DHA DEPOSITION AND RELATED FUNCTION AND/OR DEVELOPMENT” (Monsanto Company, priority 2008, published 2009).

Experiment: Fatty acid composition of pig tissues (ham, loin, belly, skin) after feeding SDA ethyl ester diets, 35 day study
Format: in vivo, pigs
Conditions: 35 days
Protocol: A 35 day study was conducted to determine whether pigs fed a diet containing SDA could enhance tissues with improved fatty acid profiles including increased levels of SDA, EPA, and DHA.
Four test diets (Treatment 2, 3, 4, and 5) with SDA ethyl ester substituted for corn oil to provide 0.2, 0.4, 0.6 and 0.8% (w/w SDA active ingredient, as-is basis) were fed ad libitum to one pen of four pigs throughout the 35-day test period Table 4). All diets were fed in meal form. Treatment 6 was fed the same diet as Treatment 5, but for a duration of only 21 days.
All pigs were individually weighed at initiation of the acclimation and test period, and immediately prior to slaughter. Feed consumption per pen was recorded. Upon completion of the feeding period, pigs were slaughtered for tissue collection and carcass evaluation. Pigs were slaughtered using standard industry practices (electrical stunning, exsanguinations, scalding, dehairing and evisceration). Live weights prior to slaughter and hot carcass weights were recorded. The left side of each carcass was fabricated and samples were obtained from the loin (longissimus muscle), ham (semimembranosus muscle) and belly (a section from the center of the belly) for sensory evaluation, fatty acid, and proximate analysis. Prior to removing the sample for sensory and fatty and proximate analysis from the belly the firmness of the belly was evaluated using a flop test. At 24 hr postmortem fat thickness (10th rib), loin eye area (10th rib), visual color, firmness and marbling, Minolta color (L*a*b*), pH, and drip loss were measured.
In order to evaluate the fatty acid composition of pig tissues (loin, ham, skin, and belly), samples were stored at −80° C. until evaluation. After thawing, ˜22 g of fresh pig tissue was chopped into small pieces and thoroughly mixed before 10 g was sub sampled and lyophilized. Lyophilized samples were ground in 30 ml Sarstedt tubes with two ball bearings using a Mega Grinder. Ground samples (loin and ham: 50 mg; skin: 100 mg; belly: 150 mg; diet: 500 mg) were directly methylated with sulfuric acid in methanol (loin and ham: 1 mL; skin: 3 mL; belly: 10 mL; diet: 1.5 mL) sealed in the presence of butylated hydroxytoluene (50 mg BHT in 100 ml reagent) in reflux conditions of 90° C. Resultant fatty acid methyl esters (FAME's) were separated by capillary gas chromatography (GC) and detected by flame ionization detector (FID). The column used was a Supelco Omegawax 250 capillary column with dimensions of 30 m×0.25 mm×0.25 μm film thickness. The run time was 32 minutes. Peaks were identified based on their relative retention time compared to a FAME reference mixture. Quantification was achieved by using an internal standard (c15:0 triacylglyceride (TAG) for pig tissue samples and c17:0 TAG for diet samples). Results are reported as FA g/100 g fat with theoretical response correction.
For Table 6 below, each value represents g/100 g total fatty acids a mean of 4 samples (1 sample from each of 4 pigs) per treatment.

CC/C=C\C/C=C\C/C=C\C/C=C\CCCCC(=O)O [SDA, stearidonic acid]
24:1 n-9, ham (0.4% SDA feed): 0.05 g FA per 100 g fat | Total PUFA, ham (0.4% SDA feed): 13.34 g FA per 100 g fat | Total monoenes, ham (0.4% SDA feed): 48.71 g FA per 100 g fat | Total n-3, ham (0.4% SDA feed): 1.23 g FA per 100 g fat | Total n-6, ham (0.4% SDA feed): 12.11 g FA per 100 g fat | Total saturates, ham (0.4% SDA feed): 33.55 g FA per 100 g fat | n-6/n-3, ham (0.4% SDA feed): 9.85 | 12:0, ham (0.6% SDA feed): 0.06 g FA per 100 g fat | 14:0, ham (0.6% SDA feed): 1.05 g FA per 100 g fat | 16:0, ham (0.6% SDA feed): 21.49 g FA per 100 g fat | 16:1 n-7, ham (0.6% SDA feed): 3.03 g FA per 100 g fat | 16:1 n-9, ham (0.6% SDA feed): 0.26 g FA per 100 g fat | 18:0, ham (0.6% SDA feed): 11.47 g FA per 100 g fat | 18:1 n-7, ham (0.6% SDA feed): 4.08 g FA per 100 g fat | 18:1 n-9, ham (0.6% SDA feed): 37.64 g FA per 100 g fat | 18:2 n-6 (LA), ham (0.6% SDA feed): 9.92 g FA per 100 g fat | 18:3 n-3 (ALA), ham (0.6% SDA feed): 0.22 g FA per 100 g fat | 18:3 n-6 (GLA), ham (0.6% SDA feed): 0.14 g FA per 100 g fat | 18:4 n-3 (SDA), ham (0.6% SDA feed): 0.16 g FA per 100 g fat | 20:0, ham (0.6% SDA feed): 0.16 g FA per 100 g fat | 20:1 n-7, ham (0.6% SDA feed): 0.04 g FA per 100 g fat | 20:1 n-9, ham (0.6% SDA feed): 0.59 g FA per 100 g fat | 20:1 n-11, ham (0.6% SDA feed): 0.03 g FA per 100 g fat | 20:2 n-6, ham (0.6% SDA feed): 0.28 g FA per 100 g fat | 20:3 n-3, ham (0.6% SDA feed): 0.04 g FA per 100 g fat | 20:3 n-6 (DGLA), ham (0.6% SDA feed): 0.43 g FA per 100 g fat | 20:4 n-3 (ETA), ham (0.6% SDA feed): 0.26 g FA per 100 g fat | 20:4 n-6 (AA), ham (0.6% SDA feed): 2.60 g FA per 100 g fat | 20:5 n-3 (EPA), ham (0.6% SDA feed): 0.54 g FA per 100 g fat | 22:0, ham (0.6% SDA feed): 0.07 g FA per 100 g fat | 22:1 n-9, ham (0.6% SDA feed): 0.00 g FA per 100 g fat | 22:1 n-11, ham (0.6% SDA feed): 0.00 g FA per 100 g fat | 22:1 n-13, ham (0.6% SDA feed): 0.00 g FA per 100 g fat | 22:2 n-7, ham (0.6% SDA feed): 0.00 g FA per 100 g fat | 22:3 n-6, ham (0.6% SDA feed): 0.24 g FA per 100 g fat | 22:5 n-3 (DPA), ham (0.6% SDA feed): 0.67 g FA per 100 g fat | 22:6 n-3 (DHA), ham (0.6% SDA feed): 0.10 g FA per 100 g fat | 24:1 n-9, ham (0.6% SDA feed): 0.06 g FA per 100 g fat | Total PUFA, ham (0.6% SDA feed): 15.59 g FA per 100 g fat | Total monoenes, ham (0.6% SDA feed): 45.72 g FA per 100 g fat | Total n-3, ham (0.6% SDA feed): 1.99 g FA per 100 g fat | Total n-6, ham (0.6% SDA feed): 13.60 g FA per 100 g fat | Total saturates, ham (0.6% SDA feed): 34.30 g FA per 100 g fat | n-6/n-3, ham (0.6% SDA feed): 6.83 | 12:0, ham (0.8% SDA feed): 0.05 g FA per 100 g fat | 14:0, ham (0.8% SDA feed): 0.96 g FA per 100 g fat | 16:0, ham (0.8% SDA feed): 20.70 g FA per 100 g fat | 16:1 n-7, ham (0.8% SDA feed): 2.90 g FA per 100 g fat | 16:1 n-9, ham (0.8% SDA feed): 0.53 g FA per 100 g fat | 18:0, ham (0.8% SDA feed): 11.25 g FA per 100 g fat | 18:1 n-7, ham (0.8% SDA feed): 4.27 g FA per 100 g fat | 18:1 n-9, ham (0.8% SDA feed): 35.19 g FA per 100 g fat | 18:2 n-6 (LA), ham (0.8% SDA feed): 11.90 g FA per 100 g fat | 18:3 n-3 (ALA), ham (0.8% SDA feed): 0.25 g FA per 100 g fat | 18:3 n-6 (GLA), ham (0.8% SDA feed): 0.21 g FA per 100 g fat | 18:4 n-3 (SDA), ham (0.8% SDA feed): 0.24 g FA per 100 g fat | 20:0, ham (0.8% SDA feed): 0.13 g FA per 100 g fat | 20:1 n-7, ham (0.8% SDA feed): 0.04 g FA per 100 g fat | 20:1 n-9, ham (0.8% SDA feed): 0.52 g FA per 100 g fat | 20:1 n-11, ham (0.8% SDA feed): 0.03 g FA per 100 g fat | 20:2 n-6, ham (0.8% SDA feed): 0.27 g FA per 100 g fat | 20:3 n-3, ham (0.8% SDA feed): 0.03 g FA per 100 g fat | 20:3 n-6 (DGLA), ham (0.8% SDA feed): 0.50 g FA per 100 g fat | 20:4 n-3 (ETA), ham (0.8% SDA feed): 0.29 g FA per 100 g fat | 20:4 n-6 (AA), ham (0.8% SDA feed): 3.12 g FA per 100 g fat | 20:5 n-3 (EPA), ham (0.8% SDA feed): 0.87 g FA per 100 g fat | 22:0, ham (0.8% SDA feed): 0.10 g FA per 100 g fat | 22:1 n-9, ham (0.8% SDA feed): 0.00 g FA per 100 g fat | 22:1 n-11, ham (0.8% SDA feed): 0.00 g FA per 100 g fat | 22:1 n-13, ham (0.8% SDA feed): 0.00 g FA per 100 g fat | 22:2 n-7, ham (0.8% SDA feed): 0.00 g FA per 100 g fat
